melting point [°C] | Compound
123 to 125 | Cc1cc(C=O)c(C)n1-c1ccc(Cl)cc1
86 to 88 | O=C(O)C1CCCN(c2ncccc2C(F)(F)F)C1 (stereo not given)
183 to 185 | O=C(O)c1sc2ccccc2c1CSc1ccccc1Cl
114 to 116 | N#Cc1ccc(NC(=O)CCCCl)cc1
262 to 264 | O=C(O)c1cn(-c2ccccc2)nc1-c1ccc(Br)cc1
69 to 71 | Cc1ccc(C2(C)CC(=O)NC2=O)cc1 (stereo not given)
218 to 221 | O=S(=O)(c1ccc(S)nc1)N1CCCCC1
189 to 191 | Nc1ccc(C=CC(=O)O)cn1
49 to 51 | CS(=O)(=O)c1cccc(N)c1
264 to 266 | O=C(O)c1ccc2c(c1)-c1ccccc1C2
213 to 215 | Cc1cc(C(=O)O)c(C)n1-c1ccccc1
178 to 183 | O=S(=O)(c1cccc2c1N=S=N2)N1CCNCC1
285 to 287 | Nc1nc2c(cc1C(=O)O)CCCC2
45 to 47 | N#CC=C(Cl)c1cccc(OC(F)F)c1
170 to 172 | COCCNc1nc2ccccc2[nH]1
102 to 104 | Nc1cc(N2CCCS2(=O)=O)ccc1F
124 to 126 | CC(=O)c1sc(-c2ccccc2Br)nc1C
76 to 78 | COc1cccnc1N
97 to 99 | O=C(O)CCC(=O)c1cc(Cl)ccc1Cl
182 to 186 | Nc1c(F)cccc1C(=O)O
159 to 161 | Cc1ccc(-c2cnc(CCC(=O)O)o2)cc1C
201 to 203 | COc1ccccc1NS(=O)(=O)c1ccc(C(=O)O)cc1
199 to 201 | Cc1ccccc1-c1nnc(S)n1N
260 to 262 | O=C(O)c1[nH]nc(-c2ccccc2)c1Br
190 to 192 | Nc1nc2c(s1)COc1ccccc1-2
119 to 121 | O=c1cc(CS)nc2ccccn12
297 to 299 | CC(N)(C(=O)O)c1ccc(Cl)cc1 (stereo not given)

melting point [°C] | Compound
121 to 123 | Nc1ccc(N2CCOCC2)c(F)c1
149 to 151 | COc1cc2c(cc1OC)CN(Cc1ccccc1N)CC2
78 to 80 | COc1cccc(C(=O)NCC(=O)O)c1
45 to 47 | CN(C)S(=O)(=O)c1cccc(CCl)c1
192 to 194 | COc1ccc(OC)c(-c2cc(C(=O)O)no2)c1
126 to 128 | Nc1ccc(Cl)c(C(=O)NC2CC2)c1
99 to 101 | CC(C)c1ccc(SC(C(=O)O)c2ccccc2)cc1 (stereo not given)
79 to 81 | CCOC(=O)c1cc(Br)ccc1N
332 to 334 | CC(C)n1c(=O)[nH]c2cc(C(=O)O)ccc2c1=O
76 to 78 | N#Cc1ccc(CN2CCc3ccccc32)cc1
222 to 224 | NNC(=O)c1cc(Br)ccc1O
176 to 178 | CN1CCN(S(=O)(=O)c2ccc3c(c2)CCN3)CC1
219 to 221 | Cc1nn(-c2ccc(Cl)cc2)c(C)c1C(=O)O
97 to 99 | CC1CC(C)CN(C(=O)c2ccccc2N)C1 (stereo not given)
169 to 171 | CC1CNc2cc(F)ccc2C(=O)N1 (stereo not given)
146 to 148 | CC(=O)Nc1cccs1
201 to 203 | Cc1cc(Br)c(O)c(C(=O)O)c1
89 to 91 | CN(C)C(=O)COc1ccccc1C=O
236 to 238 | NS(=O)(=O)c1cc(C(=O)O)ccc1F
92 to 94 | CC(O)c1ccc(-n2cccn2)cc1 (stereo not given)
173 to 175 | NNc1oc(-c2ccccc2)nc1C(N)=O
299 to 301 | O=C(O)c1ccc(-c2ccco2)[nH]c1=O
269 to 271 | NC(=O)Nc1cccc(C(=O)O)c1
135 to 137 | NNC(=O)c1ccc(S(=O)(=O)N2CCN(Cc3ccccc3)CC2)cc1
131 to 134 | CC(=O)Oc1cccc(C(=O)O)c1
163 to 167 | Nn1c(S)nnc1COc1ccccc1
178 to 180 | Cc1n[nH]c(C)c1S(=O)(=O)N1CCC(C)CC1

melting point [°C] | Compound
125 to 127 | O=C(O)C1CCCCN1S(=O)(=O)c1ccc(Br)s1 (stereo not given)
79 to 81 | CCN(Cc1ccccc1N)C(C)=O
125 to 127 | NC(=O)Cc1csc(-c2ccco2)n1
219 to 221 | Sc1nc(C2CC2)nc2ccccc12
105 to 107 | CC(=O)c1oc2ccccc2c1NC(=O)C(C)Cl (stereo not given)
139 to 141 | CCCN1CCc2c(sc(N)c2C(N)=O)C1
51 to 53 | Cc1ccc(O)c(C(=O)NCC(C)C)c1
241 to 243 | O=C(O)c1ccnc(Oc2ccccc2)c1
116 to 118 | CC(C)C(NC(=O)c1ccccc1F)C(=O)O (stereo not given)
204 to 206 | CCN(CC)S(=O)(=O)c1ccc(N2CCC(C(=O)O)CC2)c([N+](=O)[O-])c1
192 to 194 | NNC(=O)Nc1ccc(C(=O)O)cc1
213 to 215 | Nc1ccccc1-c1nc(C2CC2)n[nH]1
158 to 160 | NC(=O)c1c(N)sc2c1CCC2
39 to 41 | COc1cc(C)c(N)cc1OC
71 to 73 | Cc1cccc2[nH]c(CO)cc12
123 to 125 | Cc1ccnc(-c2cccc(N)c2)n1
79 to 81 | Cc1[nH]c2ccccc2c1CC#N
119 to 121 | Nc1cc(F)ccc1N1CC(C(F)(F)F)OC1=O (stereo not given)
117 to 119 | CCNC(=O)Cc1ccc(N)cc1
163 to 165 | Cc1cc(C(=O)O)nc(-c2ccc(Cl)cc2)n1
99 to 101 | Nc1nc(C2CC2)c(C(=O)O)s1
143 to 145 | Nc1cccc([N+](=O)[O-])c1C(=O)O
212 to 214 | Nc1ccc(C(=O)Nc2cccnc2)cc1
152 to 156 | Cc1ccc(CN2CC(C(=O)O)CC2=O)cc1 (stereo not given)
47 to 49 | Clc1cncc(OCc2ccccc2)n1
70 to 72 | COc1ccc(N)cc1OCCN(C)C

More lines, now with the values behind:

Compound | melting point [°C]
CCOc1ccc(O)c(C=O)c1 | 49 to 51
O=C(O)CNC(=O)c1ccc(C(F)(F)F)cc1 | 154 to 156
O=C(O)C=Cc1ccc(-n2cc(Br)cn2)c(F)c1 | 204 to 206
NNc1ccnc(F)c1 | 98 to 100
CN(C)C1(C(=O)O)CCCSC1 (stereo not given) | 196 to 198
CON=C(C(=O)N[C@@H]1C(=O)N2C(C(=O)O)=C(CSc3nnnn3C)CS[C@H]12)c1csc(N)n1 | 159 to 161
CCCC(C(=O)O)N(C)C (stereo not given) | 179 to 181
Nc1cccc(Oc2ncc(Br)cn2)c1 | 92 to 94
Cc1ccsc1-c1nnc(S)o1 | 211 to 213
O=Cc1cn(Cc2ccccc2)nc1-c1ccccc1 | 85 to 87
Nc1cc(-c2cc(Br)ccc2Cl)[nH]n1 | 158 to 160
CC1(c2ccncc2)NC(=O)NC1=O (stereo not given) | 231 to 233
Cn1nc(I)c2ncccc21 | 186 to 188
NC(=O)N1CCC(=O)CC1 | 137 to 139
CC(C)(C)C1CCC(c2cc(N)[nH]n2)CC1 (stereo not given) | 132 to 134
COc1cc(Br)c(F)cc1S(=O)(=O)Cl | 79 to 81
COC(=O)c1occc1CBr | 50 to 52
Nc1cc(-c2cc(F)cc(F)c2)[nH]n1 | 110 to 112
CC(C)CC(C)(N)C(N)=O (stereo not given) | 71 to 73
Cn1cc2c(cc1=O)CCN2 | 204 to 206
COCC(C)n1cc(C(=O)O)c(C)n1 (stereo not given) | 114 to 116
Nc1cc(C(F)(F)F)ccc1Oc1ccc(Br)cc1 | 19 to 21

Compound | melting point [°C]
CC(C(=O)O)C(C)(C)C (stereo not given) | 34 to 36
CC(N)c1nc(-c2ccc(Br)cc2)cs1 (stereo not given) | 77 to 79
CC(C)(C)OC(=O)NC1CC(O)C1 (stereo not given) | 108 to 110
NC(=S)NCC(F)(F)F | 154 to 156
N#Cc1nc(Cl)ccc1Cl | 98 to 100
C=CCNc1nc(-c2ccccc2)cs1 | 74 to 76
NC(=O)C(Cl)c1ccc(F)cc1 (stereo not given) | 93 to 95
Clc1ccc2cc(Br)ccc2n1 | 159 to 161
CS(=O)(=O)c1ccc2c(c1)NCCO2 | 117 to 119
O=C1NCCCc2sccc21 | 89 to 91
Nc1nc2nc(-c3cccs3)cc(C(F)(F)F)c2s1 | 243 to 245
CCOc1cc2nccc(Cl)c2cc1OCC | 72 to 74
COC(=O)c1n[nH]c(C)c1Br | 148 to 150
CCNS(=O)(=O)c1cc(/C=C/C(=O)O)ccc1OC | 198 to 200
O=C(O)CCCN1C(=S)CSC1=S | 122 to 124
Cc1ccc(Oc2ccc3[nH]cccc-3c2=N)c(Br)c1 | 259 to 261
Nc1cc(F)cc(S(N)(=O)=O)c1 | 153 to 155
Fc1ccc(Nc2nccs2)cc1Cl | 124 to 126
CCOc1ccccc1-c1nn(C(C)(C)C)cc1C(=O)O | 207 to 209
Cc1nn(C)c2ncc(C#N)cc12 | 176 to 178
Cc1nonc1N | 56 to 58
NC(CN1CCCC1)=NO | 142 to 144

Compound | melting point [°C]
O=C(CCl)Nc1cccnc1 | 179 to 181
Clc1cc(Cl)cc(-c2nnc(Br)s2)c1 | 154 to 156
CC(Cl)c1nnc(-c2ccc(Cl)c(Cl)c2)o1 (stereo not given) | 93 to 95
Cc1nn(CCO)c(C(F)(F)F)c1C(=O)O | 151 to 153
CS(=O)(=O)c1ccc(Cl)c([N+](=O)[O-])c1 | 121 to 123
COC(=O)C1(N)CCS(=O)(=O)CC1 | 124 to 126
O=[N+]([O-])c1cc(Cl)ccc1I | 63 to 65
O=Cc1c(Cl)cccc1OC(F)F | 37 to 39
Brc1cccc2[nH]ncc12 | 165 to 167
CN1CCC(n2nccc2N)CC1 | 98 to 100
Nc1ccc(Oc2cccc3cccnc23)cc1 | 203 to 205
Cc1n[nH]c(N)c1I | 102 to 104
Cn1cnnc1Sc1ccc(C=O)cc1[N+](=O)[O-] | 171 to 173
Sc1nnc(-c2ccccc2)n1-c1ccccc1 | 292 to 294
CC(N)(C#N)Cn1cc(Br)cn1 (stereo not given) | 60 to 62
CCC(=O)c1cc(F)cc(Br)c1 | 29 to 31
CC(NC(=O)c1ccc(S(=O)(=O)N(C)C)cc1)C(=O)O (stereo not given) | 180 to 182
CN1CCC2(CC1)NC(=O)NC2=O | 283 to 285
C=CC(=O)Nc1ccc(N(C)C(C)C)c(F)c1 | 81 to 83
O=C1CNC(=O)N1Cc1ccc(Cl)c([N+](=O)[O-])c1 | 183 to 185
CNC(c1ccc(Cl)cc1)c1ccc(Cl)cc1 | 49 to 51
